The text below walks through data of US8062995B2, “Dioxazine-substituted arylamides” (Bayer CropScience AG, priority 2005, dated 2011).

Series [1] deals with larvae of the mustard beetle (Phaedon cochleariae). As to the kind of experiment: Phaedon test (sprayed Chinese cabbage discs). In kind it is in vivo. An outline of the steps: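 Compound formulated in acetone/DMF with alkylaryl polyglycol ether emulsifier, diluted in emulsifier-containing water and sprayed onto Chinese cabbage (Brassica pekinensis) leaf discs. After drying, discs infested with Phaedon cochleariae larvae; % kill scored after set time (100% = all larvae dead, 0% = none).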

Series [2] deals with Heliothis virescens. As to the kind of experiment: Heliothis virescens test (eggs). The format is in vivo. The method, then:
(§1) Heliothis virescens Solvents: 1% of N-methylpyrrolidone (NMP) • 1% of diacetone alcohol Dye: brilliant sulphoflavin for staining the water To produce a suitable preparation of active compound, the active compound is mixed with the stated amounts of solvents and the concentrate is diluted with stained water to the desired concentration. The eggs (Heliothis virescens) are treated with an active compound preparation of the desired concentration. After the desired period of time, the activity in % is determined. 100% means that all animals have been killed; 0% means that none of the animals have been killed.

Series [3] deals with Aedes aegypti. The series is described as follows: Aedes aegypti test (larvae). In kind it is in vivo. The procedure: as §1, with “Aedes aegypti Test Solvents:” for “Heliothis virescens Solvents:”, “The larvae (Aedes aegypti)” for “The eggs (Heliothis virescens)”, “all of the larvae” for “all animals”, “the larvae” for “the animals”
Series [4] relates to Myzus persicae. As to the kind of experiment: Myzus persicae test (ingestion of active compound preparation). The format is in vivo. The procedure: Myzus persicae Test Solvents: 1% of N-methylpyrrolidone (NMP) • 1% of diacetone alcohol Dye: brilliant sulphoflavin for staining the water To produce a suitable preparation of active compound, the active compound is mixed with the stated amounts of solvents and the concentrate is diluted with stained water to the desired concentration. The Myzus persicae are provided with an active compound preparation of the desired concentration for ingestion. After the desired period of time, the activity in % is determined. 100% means that all aphids have been killed; 0% means that none of the aphids have been killed.

Series [5] relates to Spodoptera frugiperda larvae. As to the kind of experiment: Spodoptera frugiperda test (treatment by watering). The format is in vivo. An outline of the steps:
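Compound formulated in dimethylformamide with alkylaryl polyglycol ether emulsifier and diluted with water to the desired concentration. Maize plants are watered with the preparation, then infested with Spodoptera frugiperda larvae. After the set period, % larval kill is scored (100% = all killed, 0% = none).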

For series [6], the system named is Diabrotica undecimpunctata. As to the kind of experiment: Diabrotica undecimpunctata (DIABUN) test (eggs). The format is in vivo. The procedure:
as §1, with “Diabrotica undecimpunctata (DIABUN)” for “Heliothis virescens”, “(Diabrotica undecimpunctata)” for “(Heliothis virescens)”

Series [7] is described as follows: logP determination by HPLC (reversed-phase C18), EEC Directive 79/831 Annex V.A8. In kind it is physicochemical. Particulars: HPLC reversed-phase C18, 43° C., acidic range pH 2.7.
Series [8] relates to caterpillars of the cotton bollworm (Heliothis armigera). The series is described as follows: Heliothis armigera test (leaf dip). The format is in vivo. An outline of the steps: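 Compound was formulated in dimethylformamide with alkylaryl polyglycol ether emulsifier and diluted in emulsifier-containing water. Soya bean leaves were dipped in the preparation and populated with Heliothis armigera caterpillars while still moist. Kill (%) was scored after the desired period.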

Series [9] deals with caterpillars of the army worm (Spodoptera frugiperda). As to the kind of experiment: Spodoptera frugiperda test (SPODFR spray treatment). In kind it is in vivo. An outline of the steps: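 Compound formulated in acetone/DMF with alkylaryl polyglycol ether emulsifier, diluted in emulsifier-containing water and sprayed on maize leaf discs; after drying, discs infested with Spodoptera frugiperda caterpillars. Mortality (%) scored after a set period, 100% meaning all caterpillars killed.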

For orientation: logP means a log measure of how a compound divides between an organic and an aqueous phase. A low value points to a more hydrophilic compound. For `O=C(Nc1c(Cl)cc(Cl)cc1C1=NOCCO1)c1cc(Br)nn1-c1ncccc1Cl` [Example I-1-8], the “activity in the Phaedon test (in words)” value in [1] was “good activity”. Also, the “Kill rate after 7d in %” value in [1] (100 g/ha, 7 d) is 100%; in series [8] (20 ppm, 7 d), 100%; in [9] (100 g/ha, 7 d, spray treatment), 100%. Further, the “activity in the Heliothis virescens test (in words)” value in series [2] is recorded as “good activity”. Moreover, the “Kill rate after 6-7d in %” value in series [2] (100 ppm, 6-7 d, eggs) is reported as 100%; in [4] (30 ppm, 6-7 d, ingestion) it was 100%. Besides, in series [3], the “activity in the Aedes aegypti test (in words)” value was “good activity”. Also, the “Kill rate after 2-4d in %” value in series [3] (30 ppm, 2-4 d, larvae) stood at 100%. Further, in series [4], the “activity in the Myzus persicae test (in words)” value is “good activity”. In addition, the “activity in the Spodoptera frugiperda test, watering (in words)” value in series [5] is given as “good activity”. Also, in series [5] (20 ppm, 14 d, treatment by watering), the “Kill rate after 14d in %” value was determined as 95%. Besides, the “activity in the Diabrotica undecimpunctata test (in words)” value in series [6] is “good activity”. Further, the “Kill rate after 2-5d in %” value in series [6] (300 ppm, 2-5 d, eggs) was 100%. In addition, the logP in [7] was determined as 3.09. In [8], the “activity in the Heliothis armigera test (in words)” value is “good activity”. Also, the “activity in the Spodoptera frugiperda test, spray treatment (in words)” value in [9] is listed as “good activity”.
